How the values were obtained:
Test in all cases: relative viability (nuclei count vs DMSO), 5 days (fraction); higher = more cells survive
AZ23 = compound: CC(C)Oc1cc(Nc2nc(N[C@@H](C)c3ccc(F)cn3)ncc2Cl)n[nH]1 [AZ23]
How it was run: (§1)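 Five library-drug doses, separated by factors of √10, were pinned into 1536-well plates holding lung cancer cell lines after an overnight stay at 37 °C. Cells were fixed, permeabilised and Hoechst-stained in one step after 5 days without medium change, then imaged at 4×. Viability compares treated-well with vehicle-well nuclei, counted in MetaXpress, as a median across plates. Passing plates had control CV below 25% and at least one doubling.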

[1] = compound: C[C@@H]1CN(CC(=O)Nc2ccc3c(c2)Cc2cccc(-c4cc(=O)cc(N5CCOCC5)o4)c2S3)C[C@H](C)O1
How it was run: as §1

Vatalanib = compound: Clc1ccc(Nc2nnc(Cc3ccncc3)c3ccccc23)cc1 [Vatalanib]
How it was run: as §1

HG-5-88-01 = compound: CC(C)S(=O)(=O)C1=CC=CC=C1NC2=NC(=NC(=C2Cl)N)NC3=C(C=C(C=C3)N4CCC(CC4)C(=O)N)OC [HG-5-88-01]
How it was run: as §1

Embelin = compound: CCCCCCCCCCCC1=C(O)C(=O)C=C(O)C1=O [Embelin]
How it was run: as §1

Cell Line	relative viability (AZ23; 0.01 µM)	relative viability (AZ23; 0.03162 µM)	relative viability (AZ23; 0.3162 µM)	relative viability ([1]; 0.04 µM)	relative viability ([1]; 0.1265 µM)	relative viability ([1]; 0.4 µM)	relative viability ([1]; 4 µM)	relative viability (Vatalanib; 0.04 µM)	relative viability (Vatalanib; 0.1265 µM)	relative viability (Vatalanib; 0.4 µM)	relative viability (Vatalanib; 1.265 µM)	relative viability (Vatalanib; 4 µM)	relative viability (HG-5-88-01; 0.04 µM)	relative viability (HG-5-88-01; 0.1265 µM)	relative viability (HG-5-88-01; 0.4 µM)	relative viability (HG-5-88-01; 1.265 µM)	relative viability (HG-5-88-01; 4 µM)	relative viability (Embelin; 0.08 µM)	relative viability (Embelin; 0.8 µM)	relative viability (Embelin; 2.53 µM)	relative viability (Embelin; 8 µM)
201T	1.05	1.06	1.07	0.996	0.944	0.992	0.961	0.975	0.975	1.05	0.929	0.953	1.01	0.941	0.951	1.03	1.03	0.985	1.02	1.11	0.966
A549	1.23	1.12	0.922	0.958	0.922	0.918	0.806	1.01	0.944	0.998	0.928	0.929	0.997	0.954	0.909	0.726	0.75	0.992	1.06	1.12	0.97
A-427	0.921	1.07	1.15	0.956	0.945	1.06	0.938	1.03	0.97	0.983	0.863	0.989	0.94	1.02	1.02	1.11	0.534	1.06	1.03	1.04	0.943
ABC-1	0.82	1.18	1.02		1.11	0.983	1.12	0.977	0.647	0.803	0.89	0.851	0.825	1	0.732	0.75	0.778	0.866	1.11	0.893	1.03
BEN	1.05	1.12	0.994	0.929	0.881	1.12	0.955	0.954	0.904	0.951	0.882	0.946	0.866	1.07	0.884	0.873	1.05	1.04	1.14	1.1	1.02
CAL-12T	0.692	1.09	0.932	1.04	1.01	1.06	0.549	0.978	0.946	0.988	0.867	0.885	0.959	1.09	0.952	0.746	0.459	1.01	1.18	0.855	0.986
COR-L23	1.03	1.11	1.15	1.03	1.07	1.06	0.877	0.971	0.977	1.13	1.01	0.994	1.05	1.08	0.964	0.952	0.867	1	1.18	1.06	1.16
COR-L 105	0.843	1.1	1.04	0.921	1.01	1.05	0.805	0.901	0.895	1.03	0.892	0.835	0.825	0.969	0.883	0.726	0.685	1.04	1.1	0.89	0.981
Calu-6		1.09	1.01	1.04	0.951	1.03	0.74	1.06	0.958	1.06	0.949	0.976	1.04	0.965	0.946	0.948	0.854	1.01	1.09	1.07	1.07
ChaGo-K-1	1.2	1.09	1.04	0.826	0.961	0.967	0.979	0.87	0.983	1.01	0.962	1.06	1.02	1.03	0.936	1.03	0.841	1.06	1.01	1.05	0.983
EBC-1	1.04	1.12	0.931	1.02	0.952	0.712	0.535	1.06	0.895	1.06	0.955	0.896	1.02	0.851	0.98	0.933	0.901	1	1.11	1.02	0.979
EKVX	0.932	1.11	0.976	0.975	0.971	0.898	0.882	0.934	0.849	0.975	0.818	0.871	0.923	1.02	0.875		0.934	0.966	1.02	0.964	1.03
EMC-BAC-2	0.886	1.08	0.986	0.95	0.985	0.957	1.02	0.966	0.974	0.974		0.949	0.977	1.04	0.85	0.93	0.887	1.01	1.11	0.83	0.83
EPLC-272H	0.674	1.11	0.745	0.982	1	1.09	0.932	0.958	0.906	1.13	0.889	0.89	0.985	0.894	0.984	0.753	0.0869	0.969	1.18	0.962	0.806
H3255	0.858	1.21	0.999	0.917	0.947	0.905	0.878	0.921	0.926	0.841	0.781	0.978	1.04	1.05	0.838		0.871	0.963	1.05	0.875	1.07
HARA	0.821	1.1	1.07	0.931	0.908	0.873	0.911	0.88	0.99	1.12	0.878	1.03	1.04	0.979	0.923	0.598	0.805	0.963	1.12	1.05	0.929

Cell Line	relative viability (AZ23; 0.01 µM)	relative viability (AZ23; 0.03162 µM)	relative viability (AZ23; 0.3162 µM)	relative viability ([1]; 0.04 µM)	relative viability ([1]; 0.1265 µM)	relative viability ([1]; 0.4 µM)	relative viability ([1]; 4 µM)	relative viability (Vatalanib; 0.04 µM)	relative viability (Vatalanib; 0.1265 µM)	relative viability (Vatalanib; 0.4 µM)	relative viability (Vatalanib; 1.265 µM)	relative viability (Vatalanib; 4 µM)	relative viability (HG-5-88-01; 0.04 µM)	relative viability (HG-5-88-01; 0.1265 µM)	relative viability (HG-5-88-01; 0.4 µM)	relative viability (HG-5-88-01; 1.265 µM)	relative viability (HG-5-88-01; 4 µM)	relative viability (Embelin; 0.08 µM)	relative viability (Embelin; 0.8 µM)	relative viability (Embelin; 2.53 µM)	relative viability (Embelin; 8 µM)
HCC-15	1.21	1.02	1.07	1.09	0.898	0.97	0.903	1.07	1.04	1.06	0.983	1.08	1.07	1.02	0.901	1	0.743	1.01	1.09	1.01	0.964
HCC-44	0.999	1.06	1.01	0.934	0.976	0.919	0.923	0.951	0.905	0.943	0.963	0.97	1.04	0.972	0.914	0.927	0.567	0.886	1.01	1.01	0.869
HCC-78	0.837	1.01	0.589	0.883	0.922	0.821	0.923	0.95	0.862	0.972	0.82	0.835	0.836	0.736	0.476	0.378	0.417	1.02	1.02	0.977	1.07
HCC-366	1.04	1.03	1.03	1.01	0.987	1.08	0.925	1.01	0.881	1.01	0.975	0.978	0.998	1.01	0.987	0.987	1.05	1.01	1.03	1.09	1.06
HCC-827	1.06	1.13	1.08	1.05	1.04	1.08	1.07	1.02	0.949	0.924	1.04	0.996	1.06	1.05	1.06	1.03	0.615	1.03	1.11	1.09	1.09
HOP-62	1.13	1.11	1.12	0.978	0.991	0.973	0.988	0.954	0.957	1.07	0.949	1.01	1.03	1.06	0.92	1.02	1.02	1.02	1.07	1.1	0.984
IA-LM	0.91	1.12	1.07	0.911	0.938	0.946	0.574	0.977	0.898	0.955	0.909	0.898	0.959	0.984	0.85	0.715	0.704	0.932	0.981	1	0.689
LC-2-ad	1.17	1.04	1.02	1.07	0.969	0.993	0.903	1.02	0.861	0.793	0.963	0.948	1.08	0.998	1.01	0.948	0.802	0.986	1.14	1.09	0.95
LCLC-97TM1	0.998	0.915	0.873		0.965	0.853	1.04	0.875	0.84	0.977	0.838	1.03	0.98	0.922	0.807	0.838	0.291	0.906	1.15	1.17	0.971
LCLC-103H	1.04	0.993	1.08	1.01	0.903	0.793	0.926	1.05	0.932	1.01	0.993	0.977	1.04	1.04	0.86	0.96	0.657	0.999	1.06	1.04	0.8
LK-2	0.802	1.14	0.959	0.848	0.923	0.979	1.1	0.952	0.863	0.889	1.01	0.995	0.976	0.994	0.962	0.582	0.789	1.1	1.07	1.25	0.856
LOU-NH91	0.921	1.08	1.01	0.943	0.989	0.966	0.876	0.925	0.936	0.816	0.876	0.921	0.912	0.904	0.866	0.612	0.629	1.02	1.27	0.991	0.864
LU99A	1.04	0.998	0.941	0.86	1.05	1.15	0.975	1.03	1.02	1.06	0.951	0.923	0.963	0.958	0.873	1.02	0.907	1.08	1.07	1.08	0.948
LXF-289	1.17	1.04	1.02	0.974	1.01	1.04	0.976	1.05	0.935	1.02	0.958	1	1.04	1.03	0.976	0.974	0.986	1.04	1.04	1.01	1.09
NCI-H23		1.07	0.887	1.08	0.923	0.943	0.96	0.948	0.833	1.04	0.961	0.853	1.03	0.993	0.959	0.824	0.392	0.987	1.07	1.03	0.705
NCI-H322M	0.695	0.974	1.07	0.823	0.947	0.961	0.827	0.938	0.946	0.936	0.904	0.917	0.811	0.872	0.876	0.494	0.718	0.987	0.996	1.03	0.915

Source: the supplement of paper PMC10307832
